The values below come from PubChem BioAssay AID248 (DTP/NCI, 2004).

“And” between values parts separate entries of the source, which are not always exact repeats. Equal values may be shown once. Toxic doses and inconclusive results are not listed.

This assay relates to L1210 leukemia ip in BDF1 mice, survival T/C. Description: NCI In Vivo Anticancer Drug Screen. Data for tumor model L1210 Leukemia (intraperitoneal) in B6D2F1 (BDF1) mice. The settings on record: endpoint: mean survival time, higher = longer survival. Summed up:
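Value reflects the ratio of survival in compound-treated mice to survival in vehicle-treated controls, with both groups carrying the same transplanted tumor.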

Where [1] appears, read: dose: 100.0 mg/kg/injection, schedule: Q04DX003 (ip), vehicle: saline with Tween-80.
The mark [2] stands for this setting: dose: 200.0 mg/kg/injection, schedule: Q04DX003 (ip), vehicle: saline with Tween-80.
Setting [3] is: dose: 400.0 mg/kg/injection, schedule: Q04DX003 (ip), vehicle: saline with Tween-80.
[4] abbreviates: dose: 5.0 mg/kg/injection, schedule: Q01DX001 (ip), vehicle: saline.
The mark [5] stands for this setting: dose: 100.0 mg/kg/injection, schedule: Q01DX001 (ip), vehicle: saline.
Where [6] appears, read: dose: 100.0 mg/kg/injection, schedule: Q01DX009 (ip), vehicle: Klucel (hydroxypropylcellulose) (HPC).
The mark [7] stands for this setting: dose: 200.0 mg/kg/injection, schedule: Q01DX009 (ip), vehicle: Klucel (hydroxypropylcellulose) (HPC).
Where [8] appears, read: dose: 100.0 mg/kg/injection, schedule: Q01DX009 (ip), vehicle: saline with Tween-80.
[9] abbreviates: dose: 200.0 mg/kg/injection, schedule: Q01DX009 (ip), vehicle: saline with Tween-80.
Setting [10] is: dose: 400.0 mg/kg/injection, schedule: Q01DX009 (ip), vehicle: saline with Tween-80.

On to `Cc1ccc(C(=O)N(N)C2CCCCC2)cc1`, for which the T/C is, setting by setting: under setting [1], 95 % of control; under setting [2], 93 % of control; under setting [3], 96 % of control.
For `CCOP(=O)(OCC)C1=C(P(=O)(OCC)OCC)C(F)(F)C(F)(F)C1(F)F`, the T/C reads like this: (dose: 9.5 mg/kg/injection, schedule: Q01DX001 (ip), vehicle: other) 100 % of control; (dose: 19.0 mg/kg/injection, schedule: Q01DX001 (ip), vehicle: other) 100 % of control; (dose: 38.0 mg/kg/injection, schedule: Q01DX001 (ip), vehicle: other) 97 % of control.
`CCC[CH2][Sn]1([CH2]CCC)[O]CC[S]1`: the T/C under setting [4] is 111 % of control.
`O=C(Nc1ccccn1)c1cc(N2CCOCC2)ccn1`: the T/C under setting [5] is 102 % of control.
Regarding `CCCCN1C(=O)CC(C23C(=O)N(CCCC)C(=O)C2CCc2ncccc23)C1=O` (stereo unspecified), the T/C is 87 % of control under setting [6]; 94 % of control (dose: 100.0 mg/kg/injection, schedule: Q04DX003 (ip), vehicle: Klucel (hydroxypropylcellulose) (HPC)); 89 % of control under setting [7]; 99 % of control (dose: 200.0 mg/kg/injection, schedule: Q04DX003 (ip), vehicle: Klucel (hydroxypropylcellulose) (HPC)); 87 % of control (dose: 400.0 mg/kg/injection, schedule: Q01DX009 (ip), vehicle: Klucel (hydroxypropylcellulose) (HPC)); 90 % of control (dose: 400.0 mg/kg/injection, schedule: Q04DX003 (ip), vehicle: Klucel (hydroxypropylcellulose) (HPC)).
As for `COC(=O)C(N)Cc1ccc(OC)c(N(CCCl)CCCl)c1` (stereo unspecified), the T/C was 106 % of control (dose: 0.01 mg/kg/injection, schedule: Q01DX009 (ip), vehicle: saline); 116 % of control (dose: 0.02 mg/kg/injection, schedule: Q01DX009 (ip), vehicle: saline); 110 % of control (dose: 0.05 mg/kg/injection, schedule: Q01DX009 (ip), vehicle: saline); 121 % of control (dose: 0.1 mg/kg/injection, schedule: Q01DX009 (ip), vehicle: saline); 155 % of control (dose: 0.3 mg/kg/injection, schedule: Q01DX009 (ip), vehicle: saline); 106 % of control (dose: 0.62 mg/kg/injection, schedule: Q01DX001 (ip), vehicle: saline). In addition, the T/C runs as follows: (dose: 1.25 mg/kg/injection, schedule: Q01DX001 (ip), vehicle: saline) 98 % of control; (dose: 1.5 mg/kg/injection, schedule: Q01DX001 (ip), vehicle: carboxymethylcellulose (CMC)) 115 % of control; (dose: 1.5 mg/kg/injection, schedule: Q01DX009 (ip), vehicle: saline) 151 % of control; (dose: 2.5 mg/kg/injection, schedule: Q01DX001 (ip), vehicle: saline) 106 % of control and 122 % of control; (dose: 2.9 mg/kg/injection, schedule: Q01DX001 (ip), vehicle: saline) 105 % of control; (dose: 2.9 mg/kg/injection, schedule: Q01DX009 (ip), vehicle: saline) 230 % of control. The T/C (dose: 3.0 mg/kg/injection, schedule: Q01DX001 (ip), vehicle: carboxymethylcellulose (CMC)) is 120 % of control; the T/C (dose: 3.0 mg/kg/injection, schedule: Q01DX009 (ip), vehicle: saline) was 123 % of control; the T/C (dose: 4.4 mg/kg/injection, schedule: Q01DX001 (ip), vehicle: saline) is 104 % of control; the T/C (dose: 4.4 mg/kg/injection, schedule: Q01DX009 (ip), vehicle: saline) was 108 % of control; the T/C under setting [4] is 111 % of control and 124 % of control; the T/C (dose: 6.0 mg/kg/injection, schedule: Q01DX001 (ip), vehicle: carboxymethylcellulose (CMC)) is 108 % of control. The T/C was 109 % of control (dose: 6.6 mg/kg/injection, schedule: Q01DX001 (ip), vehicle: saline) and 107 % of control (dose: 10.0 mg/kg/injection, schedule: Q01DX001 (ip), vehicle: saline).
Take `O=C(c1ccccc1Br)C(Br)C(Br)c1ccccc1` (stereo unspecified): the T/C was 98 % of control under setting [8], 93 % of control under setting [9] and 91 % of control under setting [10].
`CC(=O)Nc1nc(=O)n(CC(=O)c2cccs2)cc1F`: the T/C under setting [8] was 98 % of control; the T/C under setting [1] is 102 % of control; the T/C under setting [9] was 98 % of control; the T/C under setting [2] is 97 % of control; the T/C under setting [3] was 101 % of control.
Turning to `OC(c1ccccc1)(c1ccccc1)c1ccc(F)cc1`, the T/C by setting is: under setting [8], 102 % of control; under setting [1], 92 % of control; under setting [9], 101 % of control; under setting [2], 100 % of control; under setting [10], 89 % of control; under setting [3], 87 % of control.
On to `COC(=O)CC(=O)C=P(c1ccccc1)(c1ccccc1)c1ccccc1`, for which the T/C runs as follows: (dose: 12.5 mg/kg/injection, schedule: Q01DX009 (ip), vehicle: saline with Tween-80) 98 % of control; (dose: 25.0 mg/kg/injection, schedule: Q01DX009 (ip), vehicle: saline with Tween-80) 101 % of control; (dose: 50.0 mg/kg/injection, schedule: Q01DX009 (ip), vehicle: saline with Tween-80) 95 % of control; (dose: 75.0 mg/kg/injection, schedule: Q01DX001 (ip), vehicle: saline) 96 % of control; under setting [8], 89 % of control; (dose: 150.0 mg/kg/injection, schedule: Q01DX001 (ip), vehicle: saline) 100 % of control. The T/C (dose: 300.0 mg/kg/injection, schedule: Q01DX001 (ip), vehicle: saline) was 93 % of control.
As to `CC(C)(C)OC(=O)CC#N`, the T/C (dose: 75.0 mg/kg/injection, schedule: Q04DX003 (ip), vehicle: saline) was 97 % of control; the T/C under setting [5] was 97 % of control; the T/C (dose: 150.0 mg/kg/injection, schedule: Q04DX003 (ip), vehicle: saline) was 94 % of control; the T/C (dose: 200.0 mg/kg/injection, schedule: Q01DX001 (ip), vehicle: saline) was 101 % of control; the T/C (dose: 300.0 mg/kg/injection, schedule: Q04DX003 (ip), vehicle: saline) was 100 % of control.
Turning to `O=C(Nc1cccc(Cl)c1)SCCSC(=O)Nc1cccc(Cl)c1`, the T/C is, setting by setting: (dose: 100.0 mg/kg/injection, schedule: Q01DX001 (ip), vehicle: saline with Tween-80) 88 % of control; under setting [1], 98 % of control; (dose: 200.0 mg/kg/injection, schedule: Q01DX001 (ip), vehicle: saline with Tween-80) 93 % of control; under setting [2], 87 % of control; under setting [3], 88 % of control.
On to `COc1ccc(Cl)cc1NC1=CC(c2ccc(Cl)cc2)OC1=O` (stereo unspecified), for which the T/C is 102 % of control under setting [1], 100 % of control under setting [2] and 91 % of control under setting [3].
As to `CCNc1nc(NCC)c(Cl)c(C(Cl)(Cl)Cl)n1`, the T/C runs as follows: (dose: 50.0 mg/kg/injection, schedule: Q01DX009 (ip), vehicle: Klucel (hydroxypropylcellulose) (HPC)) 102 % of control; under setting [6], 102 % of control; under setting [7], 105 % of control.
